According to patent US20090227489A1, “STAT3 Agonists and Antagonists and Therapeutic Uses Thereof” (Johns Hopkins University, priority 2000, published 2009):

System: B16 cells
Assay: Macrophage-mediated antitumor cytotoxicity (3H-TdR incorporation)
Type: cell-based, murine
Details: added to macrophages before supernatant; NMA 0.5 mM, catalase 500 U/ml
Protocol: Macrophages (˜1×10^5) were incubated in 50% supernatants from Stat3β-transfected (S-Stat3β) or GFP-vector transfected (S-GFP) B16 cells for 6 h. The supernatants were replaced by normal complete medium and wild-type B16 cells (1×10^4) were added.
Macrophage-mediated antitumor cytotoxicity. Antitumor cytotoxic activity of macrophages against B16 cells was determined by inhibition of DNA synthesis. Briefly, peritoneal macrophages (1×10^5) were incubated in 50% supernatants derived from either wild type, pIRES-Stat3β or pIRES-GFP transfected, or UV-irradiated B16 cells for 6 h. After replacing the supernatants with normal complete medium, B16 cells (1.0×10^4/well) were added and co-cultured for 48 h with and without peritoneal macrophages. For some experiments, NOS inhibitor, N-monomethyl-L-arginine (NMA) (0.5 mM, Sigma) or H202 quencher, catalase (500 U/ml, Boehringer Mannheim, Indianapolis, Ind.) were added to macrophages before adding supernatant from Stat3β-transfected B16 cells. The co-cultured cells were pulsed with 3H-thymidine (3H-TdR) (0.25 μCi/well) during the last 6 h of incubation to estimate DNA synthesis. 3H-TdR incorporation was determined using a liquid scintillation β-counter (Pharmacia Wallac, Finland).
3H-thymidine incorporation to estimate DNA synthesis and cell proliferation was performed.

catalase
effect on macrophage-mediated cytostasis induced by Stat3β supernatant: does not influence macrophage cytotoxic effects against B16 cells
